The assay has as its target T1, mouse VISTA (mVISTA) (Mus musculus, UniProt Q9D659).
T1 construct: expressed in transfected cells; host or cells: Human embryonic kidney 293T cells
T1 sequence (Q9D659 33-308): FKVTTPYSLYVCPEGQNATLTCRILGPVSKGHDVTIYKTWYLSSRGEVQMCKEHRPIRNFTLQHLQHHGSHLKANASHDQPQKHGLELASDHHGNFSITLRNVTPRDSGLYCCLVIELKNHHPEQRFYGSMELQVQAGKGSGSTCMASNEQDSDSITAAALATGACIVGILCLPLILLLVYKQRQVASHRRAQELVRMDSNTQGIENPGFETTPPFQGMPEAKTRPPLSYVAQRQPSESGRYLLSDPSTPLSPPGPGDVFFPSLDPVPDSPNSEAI
The experiment in a line: Cell-Based Binding High-Content Assay For mVISTA (HC CBA mVISTA). An outline of the steps: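 mVISTA-293T, 4,000 cells/well; cpd ± washout step; biotin-peptide 2 nM final, 30 min RT; SA-Alexa 647 30 min; formaldehyde/Hoechst fix; HCS imaging; 4PL IC50.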

The mark [1] stands for this setting: 293T cells expressing mouse VISTA, competition with biotinylated peptide (2 nM), read-out: HC CBA mVISTA IC50.

SMILES strings stand for the structures. Where two headings read alike, the source gives them in different places. Starred links: 1 amine or outer side, 2 acyl side, 3 side chain; linkers in the order of their positions; H or OH if unused. Positions of bridges follow the written chain, without caps; N, C: chain ends. Non-standard residues stand in square brackets, D forms with d. Residues, ends and D or L forms follow the SMILES beside them. ξ: configuration not given here. Phe(3-CF3) = N[C@@H](Cc1cccc(C(F)(F)F)c1)C(=O)O; Phe(4-CONH2) = NC(=O)c1ccc(C[C@H](N)C(=O)O)cc1; Phe(3-Me) = Cc1cccc(C[C@H](N)C(=O)O)c1; 2Nal = N[C@@H](Cc1ccc2ccccc2c1)C(=O)O; βAsp = O=C(O)[C@H](CC(=O)[*:2])N[*:1]; Aad = N[C@@H](CCCC(=O)O)C(=O)O; Ile(3ξ) = CCC(C)[C@H](N)C(=O)O; Ahp(2) = CCCCC[C@H](N)C(=O)O; NMeNle = CCCC[C@H](NC)C(=O)O; Tle = CC(C)(C)[C@H](N)C(=O)O; NHexGly = CCCCCCNCC(=O)O; Nle = CCCC[C@H](N)C(=O)O; Orn = NCCC[C@H](N)C(=O)O; Aun = NCCCCCCCCCCC(=O)O; Dab = NCC[C@H](N)C(=O)O; AEEA = NCCOCCOCC(=O)O

In general, IC50 refers to the point on the concentration scale where inhibition reaches its midpoint. Consider `CCCCCCN1CC(=O)N[C@@H](Cc2ccc(O)cc2)C(=O)N[C@@H](CCCC)C(=O)N[C@@H](CC(N)=O)C(=O)N[C@@H](CCCNC(=N)N)C(=O)N(C)[C@@H](CCCC)C(=O)N[C@@H](CCCCC)C(=O)N2CCC[C@H]2C(=O)N[C@@H](C(C)C)C(=O)N[C@@H](CCCNC(=N)N)C(=O)N[C@H](C(=O)NCC(=O)O)CSCC(=O)N[C@@H](Cc2ccc3ccccc3c2)C(=O)N[C@@H](Cc2c[nH]c3ccccc23)C(=O)N[C@@H](CC(=O)O)C1=O` [compound 1246] ({CH2CO}-[2Nal]WD[NHexGly]Y[Nle]NR[NMeNle][Ahp(2)]PVRCG-OH; thioether N-14), for which the IC50 (cell-based binding high-content assay, mVISTA, the 15th table, read-out: HC CBA mVISTA IC50) was 25.1 nM.
Take `CCCCCCN1CC(=O)N[C@@H](Cc2ccc(O)cc2)C(=O)N[C@@H](C(C)CC)C(=O)NCC(=O)N[C@@H](CCCNC(=N)N)C(=O)N[C@@H](CC(C)C)C(=O)N[C@@H](CCCCC)C(=O)N2CCC[C@H]2C(=O)N[C@@H](C(C)C)C(=O)N[C@@H](CO)C(=O)N[C@H](C(=O)NCC(=O)O)CSCC(=O)N[C@@H](Cc2ccccc2)C(=O)N[C@@H](Cc2ccc(O)cc2)C(=O)N[C@@H](CC(=O)O)C1=O` (some centres unmarked) [Example 1059] ({CH2CO}-FYD[NHexGly]Y[Ile(3ξ)]GRL[Ahp(2)]PVSCG-OH; thioether N-14): the IC50 under setting [1] stood at 30 nM.
As to `CCCCCCN1CC(=O)N[C@@H](Cc2ccc(O)cc2)C(=O)N[C@@H](CCCCC)C(=O)N[C@@H](CC(N)=O)C(=O)N[C@@H](CCN)C(=O)N[C@@H](CC(C)C)C(=O)N[C@@H](CCCCC)C(=O)N2CCC[C@H]2C(=O)N[C@@H](C(C)C)C(=O)N[C@@H](CO)C(=O)N[C@H](C(=O)NCC(N)=O)CSCC(=O)N[C@@H](Cc2ccccc2)C(=O)N[C@@H](Cc2ccc(O)cc2)C(=O)N[C@@H](CC(=O)O)C1=O` [Example 1037] ({CH2CO}-FYD[NHexGly]Y[Ahp(2)]N[Dab]L[Ahp(2)]PVSCG-NH2; thioether N-14), the IC50 under setting [1] was 36.4 nM.
In the case of `CCCCCCN1CC(=O)N[C@@H](Cc2ccc(O)cc2)C(=O)N[C@@H](CC(C)C)C(=O)N[C@@H](CC(N)=O)C(=O)N[C@@H](CCCNC(=N)N)C(=O)N(C)[C@@H](CCCC)C(=O)N[C@@H](CCCCC)C(=O)N2CCC[C@H]2C(=O)N[C@@H](C(C)(C)C)C(=O)N[C@@H](CC(=O)O)C(=O)N[C@H](C(=O)N[C@@H](CC(=O)NCCOCCOCC(=O)N[C@@H](CC(=O)O)C(=O)NCCOCCOCC(=O)NCCCCCCCCCCC(=O)O)C(=O)O)CSCC(=O)N[C@@H](Cc2ccc(C(N)=O)cc2)C(=O)N[C@@H](Cc2c[nH]c3ccccc23)C(=O)N[C@@H](CC(=O)O)C1=O` [compound 2091] ({CH2CO}-[Phe(4-CONH2)]WD[NHexGly]YLNR[NMeNle][Ahp(2)]P[Tle]DC[βAsp][AEEA]D[AEEA][Aun]-OH; thioether N-14), the IC50 (cell-based binding high-content assay, mVISTA, read-out: HC CBA miPrISTA IC50) came to 14.6 nM.
Turning to `CCCCCCN1CC(=O)N[C@@H](Cc2ccc(O)cc2)C(=O)N[C@@H](CCCC)C(=O)N[C@@H](CC(=O)O)C(=O)N[C@@H](CCCN)C(=O)N(C)[C@@H](CCCC)C(=O)N[C@@H](CCCCC)C(=O)N2CCC[C@H]2C(=O)N[C@@H](C(C)C)C(=O)N[C@@H](CC(=O)O)C(=O)N[C@H](C(=O)N[C@@H](CO)C(N)=O)CSCC(=O)N[C@@H](Cc2cccc(C)c2)C(=O)N[C@@H](Cc2c[nH]c3ccccc23)C(=O)N[C@@H](CC(=O)O)C1=O` [compound 1446] ({CH2CO}-[Phe(3-Me)]WD[NHexGly]Y[Nle]D[Orn][NMeNle][Ahp(2)]PVDCS-NH2; thioether N-14), the IC50 (the 19th table, scaffold drawing 22, read-out: HC CBA mVISTA IC50) is 9.1 nM.
Take `CCCCCCN1CC(=O)N[C@@H](Cc2ccc(O)cc2)C(=O)N[C@@H](CCCC)C(=O)N[C@@H](CC(=O)O)C(=O)N[C@@H](CCCN)C(=O)N(C)[C@@H](CCCC)C(=O)N[C@@H](CCCCC)C(=O)N2CCC[C@H]2C(=O)N[C@@H](C(C)C)C(=O)N[C@@H](CC(=O)O)C(=O)N[C@H](C(=O)N[C@@H](CO)C(N)=O)CSCC(=O)N[C@@H](Cc2ccc3ccccc3c2)C(=O)N[C@@H](Cc2ccc(O)cc2)C(=O)N[C@@H](CC(=O)O)C1=O` [Ex 1320] ({CH2CO}-[2Nal]YD[NHexGly]Y[Nle]D[Orn][NMeNle][Ahp(2)]PVDCS-NH2; thioether N-14): the IC50 (cell-based binding high-content assay, mVISTA, the 16th table, read-out: HC CBA mVISTA IC50) turned out to be 21.3 nM.
Turning to `CCCCCCN1CC(=O)N[C@@H](Cc2ccc(O)cc2)C(=O)N[C@@H](CCCC)C(=O)N[C@@H](CC(N)=O)C(=O)N[C@@H](CCCNC(=N)N)C(=O)N[C@@H](CC(C)C)C(=O)N[C@@H](CCCCC)C(=O)N2CCC[C@H]2C(=O)N[C@@H](C(C)C)C(=O)N[C@@H](CC(=O)O)C(=O)N[C@H](C(=O)NCC(=O)O)CSCC(=O)N[C@@H](Cc2ccccc2)C(=O)N[C@@H](Cc2cccc(C(F)(F)F)c2)C(=O)N[C@@H](CC(=O)O)C1=O` [compound 1332] ({CH2CO}-F[Phe(3-CF3)]D[NHexGly]Y[Nle]NRL[Ahp(2)]PVDCG-OH; thioether N-14), the IC50 (read-out: HC CBA mVISTA IC50) is 12.1 nM.
On the same count and under the same terms, as for `CCCCCCN1CC(=O)N[C@@H](Cc2ccc(O)cc2)C(=O)N[C@@H](CCCC)C(=O)N[C@@H](CC(N)=O)C(=O)N[C@@H](CCCNC(=N)N)C(=O)N(C)[C@@H](CCCC)C(=O)N[C@@H](CCCCC)C(=O)N(C)[C@@H](CCCC)C(=O)N[C@@H](C(C)(C)C)C(=O)N[C@@H](CO)C(=O)N[C@H](C(=O)N[C@@H](CC(=O)NCCOCCOCC(=O)NCCCCCCCCCCC(=O)O)C(=O)O)CSCC(=O)N[C@@H](Cc2ccccc2)C(=O)N[C@@H](Cc2c[nH]c3ccccc23)C(=O)N[C@@H](CC(=O)O)C1=O` [Example 2173] ({CH2CO}-FWD[NHexGly]Y[Nle]NR[NMeNle][Ahp(2)][NMeNle][Tle]SC[βAsp][AEEA][Aun]-OH; thioether N-14), the figure is 35.1 nM.
Take `CCCCCCN1CC(=O)N[C@@H](Cc2ccc(O)cc2)C(=O)N[C@@H](CCCC(=O)O)C(=O)N[C@@H](CC(N)=O)C(=O)N[C@@H](CCCNC(=N)N)C(=O)N(C)[C@@H](CCCC)C(=O)N[C@@H](CCCCC)C(=O)N2CCC[C@H]2C(=O)N[C@@H](C(C)(C)C)C(=O)N[C@@H](CO)C(=O)N[C@H](C(=O)N[C@@H](CC(=O)NCCOCCOCC(=O)N[C@@H](CC(=O)O)C(=O)NCCOCCOCC(=O)NCCCCCCCCCCC(=O)O)C(=O)O)CSCC(=O)N[C@@H](Cc2ccccc2)C(=O)N[C@@H](Cc2ccc(O)cc2)C(=O)N[C@@H](CC(=O)O)C1=O` [compound 2054] ({CH2CO}-FYD[NHexGly]Y[Aad]NR[NMeNle][Ahp(2)]P[Tle]SC[βAsp][AEEA]D[AEEA][Aun]-OH; thioether N-14): the IC50 (cell-based binding high-content assay, mVISTA, read-out: HC CBA miPr ISTA IC50) came out at 23.2 nM.
Turning to `CCCCCCN1CC(=O)N[C@@H](Cc2ccc(O)cc2)C(=O)N[C@@H](CCCCC)C(=O)NCC(=O)N[C@@H](CCCNC(=N)N)C(=O)N[C@@H](CC(C)C)C(=O)N[C@@H](CCCCC)C(=O)N2CCC[C@H]2C(=O)N[C@@H](C(C)C)C(=O)N[C@@H](CO)C(=O)N[C@H](C(=O)NCC(N)=O)CSCC(=O)N[C@@H](Cc2ccccc2)C(=O)N[C@@H](Cc2ccc(O)cc2)C(=O)N[C@@H](CC(=O)O)C1=O` [Example 1039] ({CH2CO}-FYD[NHexGly]Y[Ahp(2)]GRL[Ahp(2)]PVSCG-NH2; thioether N-14), under setting [1], the IC50 turned out to be 2.2 nM.
In the case of `CCCCCCN1CC(=O)N[C@@H](Cc2ccc(O)cc2)C(=O)N[C@@H](CCCC)C(=O)N[C@@H](CC(N)=O)C(=O)N[C@@H](CCCNC(=N)N)C(=O)N(C)[C@@H](CCCC)C(=O)N[C@@H](CCCCC)C(=O)N2CCC[C@H]2C(=O)N[C@@H](C(C)C)C(=O)N[C@@H](CC(=O)O)C(=O)N[C@H](C(=O)NCC(=O)O)CSCC(=O)N[C@@H](Cc2ccccc2)C(=O)N[C@@H](Cc2c[nH]c3ccccc23)C(=O)N[C@@H](CC(=O)O)C1=O` [Example 1379] ({CH2CO}-FWD[NHexGly]Y[Nle]NR[NMeNle][Ahp(2)]PVDCG-OH; thioether N-14), the IC50 (read-out: HC CBA mVISTA IC50) was 5.9 nM.

For the origin of these results see patent US20240218022A1, “ANTI-VISTA MACROCYCLIC PEPTIDES AND COMPOSITIONS” (BRISTOL-MYERS SQUIBB COMPANY, priority 2022, published 2024).
